Data from patent US12459951B2, “Compounds that interact with RAS superfamily proteins for treatment of cancers, inflammatory diseases, rasopathies, and fibrotic disease” (SHY Therapeutics, LLC, priority 2022, dated 2025).

Key:
[1] = Mouse Liver Microsome Metabolic Stability Assay; type: in vitro ADME; details: pH 7.4, Mouse liver microsomes, 37° C., NADPH, read-out: t½
Protocol: Biological Example 10: Assessment of Metabolic Stability in Mouse Liver Microsomes
Metabolic Stability Assay: Microsomal incubations were carried out in 96-well plates in 5 aliquots of 30 μL each (one for each time point). Liver microsomal incubation medium comprised of phosphate buffer (100 mM, pH 7.4), MgCl2 (3.3 mM), NADPH (3 mM), glucose-6-phosphate (5.3 mM), glucose-6-phosphate dehydrogenase (0.67 units/ml) with 0.42 mg of liver microsomal protein per mL. In the control reactions the NADPH-cofactor system was substituted with phosphate buffer. Test compounds (2 μM, final solvent concentration 1.6%) were incubated with microsomes at 37° C., shaking at 100 rpm. Each reaction was performed in duplicates. Five time points over 40 minutes were analyzed. The reactions were stopped by adding 5 volumes of methanol containing internal standard to incubation aliquots, followed by protein sedimentation by centrifuging at 5500 rpm for 4 minutes. Supernatants were analyzed using the HPLC system coupled with tandem mass spectrometer.
The elimination constant (kel), half-life (t1/2) and intrinsic clearance (Clint) were determined in plot of […] versus time, using linear regression analysis:
In order to indicate the quality of the linear regression analysis, the R (correlation coefficient) values are provided. In some cases, the last time point is excluded from the calculations to ensure acceptable logarithmic linearity of decay.
Table 9 show metabolic stability data for selected compounds tested in the Mouse Liver Microsome Metabolic Stability assay described above.

JNK phosphorylation = assay: JNK Activation Assay (western blot), Panc-1; type: cell-based, human; details: at 10 μM, Panc-1 pancreatic cancer cell line; starred symbols = activation
Protocol: Protocol for JNK Activation Assay
This assay is referred to as the “JNK Activation Assay” throughout this application.
Cell lines: Human tumor-derived pancreatic cancer cell line Panc-1 (expressing KRas […] mutant) was purchased from American Type Culture Collection and grown in complete DMEM-High Glucose medium, supplemented with penicillin (100 U/mL), streptomycin (100 μg/mL), and 10% heat-inactivated FBS at 37° C. in a humidified incubator with 5% CO2.
Method 1: Cells were plated at 350000 cells/well density in a 12-well plate, allowed 3 hours to adhere to the plate, then starved in the appropriate medium in the presence of 0.5% FBS overnight. The small molecules to be tested were added to the cells in the final concentration of 10 μM in the presence of 0.3% DMSO for 6 hours incubation at 37° C. For IC50 value determination, serial dilutions of compounds were added to cells under the same conditions. Next, cells were stimulated with 1.5 ng/ml EGF for 15 minutes then cells were lysed with lysis buffer containing 1% Triton X-100, EDTA, and Halt™ Protease & Phosphatase Inhibitor Cocktail (Thermo Scientific). Protein concentration was assessed by BCA protein assay (Thermo Scientific). Phosphorylation level of JNK was determined by western blot.
Method 2: Cells were plated at 350000 cells/well density in a 12-well plate in the presence of 10% FBS. The next day small molecules to be tested were added to the cells in the final concentration of 10 μM in the presence of 0.3% DMSO for 6 hours incubation at 37° C. For IC50 value determination, serial dilutions of compounds were added to cells under the same conditions. Next, cells were lysed with lysis buffer containing 1% Triton X-100, EDTA, and Halt™ Protease & Phosphatase Inhibitor Cocktail (Thermo Scientific). Protein concentration was assessed by BCA protein assay (Thermo Scientific). Phosphorylation level of JNK was determined by western blot.
Western blot protocol: Equal amounts of protein (15-50 μg) were separated by SDS-PAGE and transferred to nitrocellulose membranes (Invitrogen by Thermo Fisher Scientific). The membrane was stained with Ponceau S Stain (Boston BioProducts) to verify uniform protein loading. Membranes were blocked with 10% milk and phosphorylation levels of JNK were assessed by incubating overnight at 4° C. with the antibody Phospho-SAPK/JNK (Thr183/Tyr185), from Cell Signaling Technology. Then the membranes were incubated with HRP-conjugated secondary antibody (Jackson Immunoresearch, West Grove, PA). Bands were incubated in Amersham ECL Prime Western Blotting Detection Reagent (GE Healthcare) and visualized using the ChemiDoc MP imaging system (Bio-Rad).

KRas G12C mutant = assay: Ras GTP Binding Domain Inhibition Assay (Ras Superfamily Assay); details: for KRas G12C mutant + SOS: % inh.: with SOS; for KRas G12C mutant: % inh.: without SOS
Procedure, shortened: (§1)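 Ni-plate capture of His-tagged protein (10-30 μg/mL, o/n 4° C); cpd 20 μM or dilution series, 1% DMSO, 3 h RT ± Sos 556-1049 last h; 100 nM Cy-labelled GTP 45 min RT; 3× wash; fluorescence read.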

KRas Q61H mutant = assay: as above; details: 20 μM compound; for KRas Q61H mutant + SOS: % inh.: with SOS; for KRas Q61H mutant: % inh.: without SOS
Procedure, shortened: as §1

Compound | half-life at 2 µM [1] | % inh of JNK in Panc-1 (JNK phosphorylation) | KRas G12C mutant + SOS: % inh. (KRas G12C mutant; 20 μM compound) | KRas G12C mutant: % inh. (KRas G12C mutant; 20 μM compound) | KRas Q61H mutant + SOS: % inh. (KRas Q61H mutant) | KRas Q61H mutant: % inh. (KRas Q61H mutant) | KRas G12C mutant + SOS: % inh. (KRas G12C mutant; at 20 μM) | KRas G12C mutant: % inh. (KRas G12C mutant; at 20 μM)
Cc1c(-c2ccn(C)n2)cn2nc(-c3nccn3C)nc(Nc3ccc(N(C)C)cn3)c12 [Compound 227, N5,N5-Dimethyl-N2-(5-methyl-2-(1-methyl-1H-imidazol-2-yl)-6-(1-methyl-1H-pyrazol-3-yl)pyrrolo[2,1-f][1,2,4]triazin-4-yl)pyridine-2,5-diamine] | > 10 min |  |  |  |  |  |  | 
COCCNc1nc(-c2nccn2C)nn2cc(-c3cccc(OC)c3Cl)c(C)c12 [Compound 16, 6-(2-Chloro-3-methoxyphenyl)-N-(2-methoxyethyl)-5-methyl-2-(1-methyl-1H-imidazol-2-yl)pyrrolo[2,1-f][1,2,4]triazin-4-amine] |  | F* (F* = 31-74% activation) | 0 (0 = 0% inhibition) | B (B = 26-49% inhibition) | 0 (0 = 0% inhibition) | A (A = 1-25% inhibition) |  | 
Cc1ccc(Nc2nc(-c3nccn3C)nn3cc(-c4ccn(C)n4)c(C)c23)nc1 [Compound 226, 5-Methyl-2-(1-methyl-1H-imidazol-2-yl)-6-(1-methyl-1H-pyrazol-3-yl)-N-(5-methylpyridin-2-yl)pyrrolo[2,1-f][1,2,4]triazin-4-amine] | > 10 min |  |  |  |  |  |  | 
COc1cccc(Nc2nc(-c3ccccn3)nn3cc(-c4ccn(C(C)C)n4)c(C)c23)n1 [Compound 14, 6-(1-Isopropyl-1H-pyrazol-3-yl)-N-(6-methoxypyridin-2-yl)-5-methyl-2-(pyridin-2-yl)pyrrolo[2,1-f][1,2,4]triazin-4-amine] |  | F* (F* = 31-74% activation) | 0 (0 = 0% inhibition) | B (B = 26-49% inhibition) | 0 (0 = 0% inhibition) | 0 (0 = 0% inhibition) |  | 
COC[C@@H]1CC[C@@H]1CNc1nc(-c2ccccn2)nn2cc(-c3ccn(C(C)C)n3)c(C)c12 (racemic) [Compound 11, rac 6-(1-Isopropyl-1H-pyrazol-3-yl)-N-(((1S,2R)-2-(methoxymethyl)cyclobutyl)methyl)-5-methyl-2-(pyridin-2-yl)pyrrolo[2,1-f][1,2,4]triazin-4-amine] |  | G* (G* = 75-99% activation) | 0 (0 = 0% inhibition) | B (B = 26-49% inhibition) | 0 (0 = 0% inhibition) | A (A = 1-25% inhibition) |  | 
COc1cc(Nc2nc(-c3ccccn3)nn3cc(-c4ccn(C(C)C)n4)c(C)c23)ncn1 [Compound 13, 6-(1-Isopropyl-1H-pyrazol-3-yl)-N-(6-methoxypyrimidin-4-yl)-5-methyl-2-(pyridin-2-yl)pyrrolo[2,1-f][1,2,4]triazin-4-amine] |  | H* (H* ≥ 100% activation) | 0 (0 = 0% inhibition) | A (A = 1-25% inhibition) | 0 (0 = 0% inhibition) | 0 (0 = 0% inhibition) |  | 
COc1cc(Nc2nc(-c3nccn3C)nn3cc(-c4ccn(C)n4)c(C)c23)ncc1C [Compound 235, N-(4-Methoxy-5-methylpyridin-2-yl)-5-methyl-2-(1-methyl-1H-imidazol-2-yl)-6-(1-methyl-1H-pyrazol-3-yl)pyrrolo[2,1-f][1,2,4]triazin-4-amine] | > 10 min |  |  |  |  |  |  | 
COc1cc(Nc2nc(-c3nccn3C)nn3cc(-c4ccn(C)n4)c(C)c23)ncc1C1CC1 [Compound 238, N-(5-Cyclopropyl-4-methoxypyridin-2-yl)-5-methyl-2-(1-methyl-1H-imidazol-2-yl)-6-(1-methyl-1H-pyrazol-3-yl)pyrrolo[2,1-f][1,2,4]triazin-4-amine] | > 10 min |  |  |  |  |  |  | 
Cc1c(-c2ccn(C)n2)cn2nc(-c3nccn3C)nc(N)c12 [Compound 211, 5-Methyl-2-(1-methyl-1H-imidazol-2-yl)-6-(1-methyl-1H-pyrazol-3-yl)pyrrolo[2,1-f][1,2,4]triazin-4-amine] |  |  |  |  |  |  | D (D = 76-100% inhibition) | C (C = 50-75% inhibition)
Cc1c(-c2ccn(C)n2)cn2nc(-c3nccn3C)nc(Nc3cc(N4CCOCC4)ccn3)c12 [Compound 222, 5-Methyl-2-(1-methyl-1H-imidazol-2-yl)-6-(1-methyl-1H-pyrazol-3-yl)-N-(4-morpholinopyridin-2-yl)pyrrolo[2,1-f][1,2,4]triazin-4-amine] | < 10 min |  |  |  |  |  |  | 
COCC1CCN(c2nc(-c3ccccn3)nn3cc(-c4ccn(C(C)C)n4)c(C)c23)C1 (racemic) [Compound 10, rac 6-(1-Isopropyl-1H-pyrazol-3-yl)-4-(3-(methoxymethyl)pyrrolidin-1-yl)-5-methyl-2-(pyridin-2-yl)pyrrolo[2,1-f][1,2,4]triazine] |  | E* (E* = 1-30% activation) | 0 (0 = 0% inhibition) | B (B = 26-49% inhibition) | 0 (0 = 0% inhibition) | A (A = 1-25% inhibition) |  | 
COC1CCCN(c2nc(-c3ccccn3)nn3cc(-c4ccn(C(C)C)n4)c(C)c23)C1 (racemic) [Compound 12, rac 6-(1-Isopropyl-1H-pyrazol-3-yl)-4-(3-methoxypiperidin-1-yl)-5-methyl-2-(pyridin-2-yl)pyrrolo[2,1-f][1,2,4]triazine] |  | E* (E* = 1-30% activation) | 0 (0 = 0% inhibition) | B (B = 26-49% inhibition) | 0 (0 = 0% inhibition) | 0 (0 = 0% inhibition) |  | 
COc1ccc(Nc2nc(-c3nccn3C)nn3cc(-c4ccn(C)n4)c(C)c23)nc1 [Compound 224, N-(5-Methoxypyridin-2-yl)-5-methyl-2-(1-methyl-1H-imidazol-2-yl)-6-(1-methyl-1H-pyrazol-3-yl)pyrrolo[2,1-f][1,2,4]triazin-4-amine] | > 10 min |  |  |  |  |  |  | 
COc1cccc(-c2cn3nc(-c4nccn4C)nc(O)c3c2C)c1Cl [Compound 15, 6-(2-Chloro-3-methoxyphenyl)-5-methyl-2-(1-methyl-1H-imidazol-2-yl)pyrrolo[2,1-f][1,2,4]triazin-4-ol] |  | F* (F* = 31-74% activation) | 0 (0 = 0% inhibition) | 0 (0 = 0% inhibition) | A (A = 1-25% inhibition) | A (A = 1-25% inhibition) |  | 
